Results as given in PubChem BioAssay (NCI).
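Interpolation was linear, between the two tested concentrations surrounding the appropriate level; five concentrations were tested over 48 hours in 96-well plates. Here, GI50 denotes the concentration required for 50% inhibition of growth. TGI: total growth inhibition.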

Experiments:
Assay in all cases: inhibition of tumour cell growth, NCI panel, 48 h
[1] = system: RPMI-8226 leukemia
[2] = system: OVCAR-8 ovarian
[3] = system: MOLT-4 leukemia
[4] = system: NCI-H460 lung
[5] = system: NCI/ADR-RES ovarian
[6] = system: SN12C renal
[7] = system: A549 NSCLC
[8] = system: COLO 205 colon
[9] = system: HL-60(TB) leukemia
[10] = system: OVCAR-4 ovarian

| SMILES | TGI [1] | TGI [2] | TGI [3] | TGI [4] | TGI [5] | TGI [6] | TGI [7] | TGI [8] | TGI [9] | GI50 [2] | GI50 [4] | GI50 [5] | GI50 [6] | GI50 [7] | GI50 [10] | TGI [10] | GI50 [8] | GI50 [9] |
| --- | --- | --- | --- | --- | --- | --- | --- | --- | --- | --- | --- | --- | --- | --- | --- | --- | --- | --- |
| COc1cc(Br)c(CC2C3=C(CCN2C(=O)C2CCC2)CC(=O)CC3)cc1O (centres undefined) | > 100 µM | > 100 µM | > 100 µM | > 100 µM | > 100 µM | > 100 µM | > 100 µM | 40 µM | 36.9 µM |  |  |  |  |  |  |  |  |  |
| O=c1ccc2nc(-c3ccccn3)nn(-c3ccccc3)c-2c1 |  | > 100 µM |  | 32.8 µM | 65.3 µM | 5.33 µM | 42.3 µM | 5.12 µM | 3.11 µM | 3.1 µM | 15.5 µM | 6.91 µM | 2.24 µM | 18.4 µM | 1.56 µM | 3.04 µM | 2.2 µM | 0.64 µM |
| O=C(O)Cn1cc([N+](=O)[O-])c(=O)c2ccccc21 |  | > 100 µM | > 100 µM | > 100 µM | > 100 µM | > 100 µM | > 100 µM | 33.7 µM | > 100 µM |  |  |  |  |  |  |  |  |  |
| O=[N+]([O-])C(Cl)=C/C(=C(\Cl)SCc1ccccc1)[N+](=O)[O-] |  | 59.9 µM | 46.9 µM | > 100 µM | > 100 µM | 45.3 µM | 73.5 µM | 32.3 µM | 23.8 µM |  |  |  |  |  |  | 41.2 µM |  |  |
| O=c1[nH]c(=S)c2cc3c(=S)[nH]c(=O)n(CCO)c3nc2n1CCO | > 100 µM | > 100 µM | > 100 µM | > 100 µM | > 100 µM | > 100 µM | > 100 µM | > 100 µM |  |  |  |  |  |  |  | > 100 µM |  |  |
| CCOC(=O)c1c(-c2cccc3ccccc23)c(C#N)c(=S)n(C2OC(COC(C)=O)C(OC(C)=O)C(OC(C)=O)C2OC(C)=O)c1C (centres undefined) |  | > 100 µM | > 100 µM | > 100 µM | > 100 µM | > 100 µM | > 100 µM | > 100 µM | > 100 µM |  |  |  |  |  |  | > 100 µM |  |  |
| O=c1c2ccccc2nc(N/N=C/c2ccccc2O)n1-c1ccccc1 |  | 5.43 µM |  | > 100 µM | 7.71 µM | > 100 µM | > 100 µM | > 100 µM | 8.07 µM |  |  |  |  |  |  | 43.2 µM |  |  |
| [N-]=[N+]=C(C(=O)N1CCCC1=O)S(=O)(=O)c1ccccc1 | > 100 µM | > 100 µM | > 100 µM | > 100 µM | > 100 µM | > 100 µM | > 100 µM | > 100 µM | > 100 µM |  |  |  |  |  |  |  |  |  |
| CCN1CCC(O)(/C=C/c2ccc(OC)cc2)C(C(=O)/C=C/c2ccc(OC)cc2)C1 (centres undefined) | 44.8 µM |  | 12.4 µM | 27.6 µM | 21.9 µM | 28 µM | 34 µM | 20.6 µM | 52.2 µM |  |  |  |  |  |  | 26.7 µM |  |  |
| O=c1ccc2ccc(O)cc2o1 | > 100 µM | > 100 µM | > 100 µM |  | > 100 µM | > 100 µM | > 100 µM | > 100 µM | > 100 µM |  |  |  |  |  |  | > 100 µM |  |  |
| CN(Cc1cc(Cl)c(Cl)cc1NC(=O)CN)[C@H]1CCCC[C@@H]1N1CCCC1 |  | > 100 µM | > 100 µM | 57.8 µM | > 100 µM | > 100 µM | > 100 µM | 33.9 µM | > 100 µM |  |  |  |  |  |  | > 100 µM |  |  |
